Experimental data as given in PubChem BioAssay AID1963858 (Molecular Pharmacology Branch, DTP, NCI, 2024).

System: HOP-62 multicell spheroids with HUVEC/MSC, viability
Experiment: Anticancer human tumor HOP-62 cell line growth inhibition [KRAS2];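 also: viability read after a week of compound exposure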;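 as to viability, T/C: 100% = DMSO vehicle-treated spheroids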
Settings: for viability, T/C: stronger effect = lower value
Excerpt: Multicellular complex tumor spheroid response to RAS pathway inhibitors in combination with a targeted agents in patient-derived cell lines with oncogenic KRAS variants from multiple cancer types
A high-throughput screen of multi-cell type tumor spheroids was designed to identify active combinations of targeted small molecules and KRAS pathway inhibitors. Complex spheroids include a stromal component modeled by human endothelial cells (HUVEC) and fibroblasts modeled by human mesenchymal stem cells (MSCs). The concentration ranges selected for each drug and investigational agent were based upon clinically achievable concentrations if the clinical Cmax of the agent was known.
Compounds. The drugs and investigational agents: BI-3406 (NSC825286), BAY-293 (NSC824723), batoprotafib (TNO155; NSC825523), sotorasib (AMG 510; NSC818433), MRTX1257 (NSC819558), elimusertib (BAY 1895344; NSC800525), molibresib (GSK525762; NSC774829), temuterkib (LY3214996; NSC803410), venetoclax (NSC766270), alisertib (NSC759677), olaparib (NSC753686), talazoparib (NSC767125), erdafitinib (NSC781556), ipatasertib (NSC767898), cabozantinib (NSC761068), nintedanib (NSC756659), abemaciclib (NSC768073), docetaxel (NSC628503), trametinib (NSC758246), and sapanisertib (NSC764658) were obtained from the National Cancer Institute (NCI) Developmental Therapeutics Program Chemical Repository. The FDA-approved anticancer drug set is available from the Developmental Therapeutics Program. […] The stock solutions were prepared in dimethyl sulfoxide (DMSO, Sigma-Aldrich, St. Louis, MO, cat. D2650) at 800-fold the tested concentration and stored at -70 degrees C prior to their use. All drugs and investigational agents were tested over a range starting from a high concentration at or near the clinical Cmax and decreasing in half-log increments. If the clinical Cmax for an agent had not been determined, the highest concentration tested was 10 microM.
Cell Culture. All cells were maintained in an incubator at 37 degrees C and 5% CO2 with 95% humidity. The PDC lines were cultured according to standard operating procedures established by the NCI PDMR (https://pdmr.cancer.gov/sops/default.htm). Briefly, all PDCs were thawed and cultured in Matrigel-coated flasks prepared with a working solution of 1X Ham's F-12 nutrient mix, without supplementation (Invitrogen, Waltham, MA, cat. 11765054), 100 U/mL penicillin-streptomycin (Invitrogen, cat. 15140122), and 2.5% Matrigel (Corning Inc., Corning, NY, cat. 354248) for the first three passages. All PDCs were cultured in complete DMEM/F-12 media containing advanced DMEM/F-12 (Invitrogen, cat. 12634028), 4.9% defined fetal bovine serum, heat inactivated (HyClone Laboratories Inc., Logan, UT, cat. SH30070.03HI), 389 ng/mL hydrocortisone (Sigma-Aldrich, cat. H4001), 9.7 ng/mL human EGF recombinant protein (Invitrogen, cat. PHG0313), 23.4 microg/mL adenine (Sigma-Aldrich, cat. A2786), 97.3 U/mL penicillin-streptomycin (Invitrogen, cat. 15140122), 1.9 mM L-glutamine (Invitrogen, cat. 25030081), and 9.7 microM Y-27632 dihydrochloride (Tocris Bioscience, Bristol, United Kingdom, cat. 1254). The PDCs were cultured in complete DMEM/F12 media without 9.7 microM Y-27632 dihydrochloride for at least two passages prior to the screen. The established cell line HOP-62 was cultured in RPMI 1640 medium, HEPES (Invitrogen, cat. 22400105) with 10% defined fetal bovine serum (HyClone Laboratories Inc., cat. SH30070.03) and 2 mM L-glutamine (Invitrogen, cat. 25030081). The pooled donor HUVEC were cultured in endothelial cell growth medium 2 (PromoCell, Heidelberg, Germany, cat. C-22011) and the hMSC were cultured in mesenchymal stem cell growth medium 2 (PromoCell, cat. C-28009). For all experiments, HUVEC and hMSC were used at passages </=5, while the malignant cell lines were used at passages </=15. […]

[1] = curve of first compound, second compound 0.1 µM
[2] = curve of first compound, second compound 0.316 µM
[3] = curve of first compound, second compound 1 µM
[4] = curve of first compound, second compound 3.16 µM
[5] = curve of first compound, second compound 10 µM
[6] = second compound 0.1 µM, first compound 0.00316 µM
[7] = second compound 0.1 µM, first compound 0.01 µM
[8] = second compound 0.1 µM, first compound 0.0316 µM
[9] = second compound 0.1 µM, first compound 0.1 µM
[10] = second compound 0.1 µM, first compound 0.316 µM
[11] = second compound 0.1 µM, first compound 1 µM
[12] = second compound 0.316 µM, first compound 0.00316 µM
[13] = second compound 0.316 µM, first compound 0.01 µM
[14] = second compound 0.316 µM, first compound 0.0316 µM
[15] = second compound 0.316 µM, first compound 0.1 µM
[16] = second compound 0.316 µM, first compound 0.316 µM
[17] = second compound 0.316 µM, first compound 1 µM
[18] = second compound 1 µM, first compound 0.00316 µM
[19] = second compound 1 µM, first compound 0.01 µM
[20] = second compound 1 µM, first compound 0.0316 µM
[21] = second compound 1 µM, first compound 0.1 µM
[22] = second compound 1 µM, first compound 0.316 µM
[23] = second compound 1 µM, first compound 1 µM
[24] = second compound 3.16 µM, first compound 0.00316 µM
[25] = second compound 3.16 µM, first compound 0.01 µM
[26] = second compound 3.16 µM, first compound 0.0316 µM
[27] = second compound 3.16 µM, first compound 0.1 µM
[28] = second compound 3.16 µM, first compound 0.316 µM
[29] = second compound 3.16 µM, first compound 1 µM
[30] = second compound 10 µM, first compound 0.00316 µM
[31] = second compound 10 µM, first compound 0.01 µM
[32] = second compound 10 µM, first compound 0.0316 µM
[33] = second compound 10 µM, first compound 0.1 µM
[34] = second compound 10 µM, first compound 0.316 µM
[35] = second compound 10 µM, first compound 1 µM
[36] = curve of first compound, second compound 0.0316 µM
[37] = second compound 0.0316 µM, first compound 0.0316 µM
[38] = second compound 0.0316 µM, first compound 0.1 µM
[39] = second compound 0.0316 µM, first compound 0.316 µM
[40] = second compound 0.0316 µM, first compound 1 µM
[41] = second compound 0.0316 µM, first compound 3.16 µM
[42] = second compound 0.1 µM, first compound 3.16 µM
[43] = second compound 0.316 µM, first compound 3.16 µM
[44] = second compound 1 µM, first compound 3.16 µM
[45] = second compound 3.16 µM, first compound 3.16 µM

SMILES	IC50 [1] [nM]	IC50 [2] [nM]	IC50 [3] [nM]	IC50 [4] [nM]	viability, T/C [8] [%]	viability, T/C [9] [%]	viability, T/C [10] [%]	viability, T/C [11] [%]	viability, T/C [14] [%]	viability, T/C [15] [%]	viability, T/C [16] [%]	viability, T/C [17] [%]	viability, T/C [20] [%]	viability, T/C [21] [%]	viability, T/C [22] [%]	viability, T/C [23] [%]	viability, T/C [26] [%]	viability, T/C [27] [%]	viability, T/C [28] [%]	viability, T/C [29] [%]	other results
CCN1CCN(Cc2ccc(Nc3ncc(F)c(-c4cc(F)c5nc(C)n(C(C)C)c5c4)n3)nc2)CC1 + CC1OCC2(CCN(c3cnc(Sc4ccnc(N)c4Cl)c(N)n3)CC2)C1N	> 1000	370	67.5	< 3.16	87.1	83.7	75.4	50.8	73.1	73	49	37.2	53	42.1	42.7	25.9	33.5	27	25.7	20.1	IC50 [5]: < 3.16 nM; viability, T/C [6]: 104%; viability, T/C [7]: 93.8%; viability, T/C [12]: 96.8%; viability, T/C [13]: 76.6%; viability, T/C [18]: 65.3%; viability, T/C [19]: 73.2%; viability, T/C [24]: 33.7%; viability, T/C [25]: 41.3%; viability, T/C [30]: 32.6%; viability, T/C [31]: 27.4%; viability, T/C [32]: 23.4%; viability, T/C [33]: 21.5%; viability, T/C [34]: 23.9%; viability, T/C [35]: 13.9%
CNCc1ccccc1-c1csc(C(C)Nc2nc(C)nc3cc(OC)c(OC)cc23)c1 (centres undefined)	–	–	–	–	–	–	–	–	–	–	–	–	–	–	–	–	–	–	–	–	viability, T/C (compound 0.1 µM): 99.2% [middle of 17 runs]; viability, T/C (compound 10 µM): 0.22% [middle of 15 runs]; IC50 (compound alone, run of 07/19/2021): 1.54 µM [middle of 5 runs]; IC50 (compound alone, run of 07/26/2021): 1.73 µM [middle of 6 runs]
CCN1CCN(Cc2ccc(Nc3ncc(F)c(-c4cc(F)c5nc(C)n(C(C)C)c5c4)n3)nc2)CC1 + COc1cc2nc(C)nc(NC(C)c3cc(N)cc(C(F)(F)F)c3)c2cc1OC1CCOC1	911	979	613	23.2	84.2	79.4	73.8	45.6	85.6	69.9	63.2	49.2	67.6	69.9	49.6	47.8	50.6	41.8	42.4	34.8	IC50 [5]: < 3.16 nM; viability, T/C [6]: 102%; viability, T/C [7]: 97%; viability, T/C [12]: 101%; viability, T/C [13]: 93.5%; viability, T/C [18]: 80.8%; viability, T/C [19]: 74.4%; viability, T/C [24]: 55.5%; viability, T/C [25]: 52.9%; viability, T/C [30]: 49.9%; viability, T/C [31]: 32.2%; viability, T/C [32]: 24.4%; viability, T/C [33]: 21.9%; viability, T/C [34]: 18.5%; viability, T/C [35]: 0.89%
O=C(c1cc(Cc2n[nH]c(=O)c3ccccc23)ccc1F)N1CCN(C(=O)C2CC2)CC1 + C=CC(=O)N1CCN(c2nc(OCC3CCCN3C)nc3c2CCN(c2cccc4cccc(C)c24)C3)CC1CC#N	< 31.6	< 31.6	< 31.6	< 31.6	45	40.5	33.8	31.4	38.1	37.8	35.2	26.4	26.4	22.7	39.3	23.1	11.3	1.1	36.4	6.37	IC50 [36]: 693 nM; viability, T/C [37]: 76.6%; viability, T/C [38]: 66.2%; viability, T/C [39]: 102%; viability, T/C [40]: 35.3%; viability, T/C [41]: 34.3%; viability, T/C (second compound 0.0316 µM, first compound 10 µM): 27.8%; viability, T/C [42]: 29%; viability, T/C (second compound 0.1 µM, first compound 10 µM): 23%; viability, T/C [43]: 20.9%; viability, T/C (second compound 0.316 µM, first compound 10 µM): 18.6%; viability, T/C [44]: 21.7%; viability, T/C (second compound 1 µM, first compound 10 µM): 21.4%; viability, T/C [45]: 8.8%; viability, T/C (second compound 3.16 µM, first compound 10 µM): 1.75%
CC(=O)OC12COC1CC(O)C1(C)C(=O)C(O)C3=C(C)C(OC(=O)C(O)C(NC(=O)OC(C)(C)C)c4ccccc4)CC(O)(C(OC(=O)c4ccccc4)C21)C3(C)C (centres undefined) + C=CC(=O)N1CCN(c2nc(OCC3CCCN3C)nc3c2CCN(c2cccc4cccc(C)c24)C3)CC1CC#N	< 10	< 10	< 10	< 10	22.7	20.7	20.1	23.2	20.1	17.5	16.9	20.2	12.1	17.1	16.2	18.2	26.9	23.2	28.5	25.5	IC50 [36]: < 10 nM; viability, T/C (second compound 0.0316 µM, first compound 0.01 µM): 31.2%; viability, T/C [37]: 26.2%; viability, T/C [38]: 26.6%; viability, T/C [39]: 28.6%; viability, T/C [40]: 30.2%; viability, T/C [41]: 35.1%; viability, T/C [7]: 19.4%; viability, T/C [42]: 23.2%; viability, T/C [13]: 18.7%; viability, T/C [43]: 19.9%; viability, T/C [19]: 18.7%; viability, T/C [44]: 18.9%; viability, T/C [25]: 27.7%; viability, T/C [45]: 27.6%
